In article PMC4821887, “Identification of chemicals that mimic transcriptional changes associated with autism, brain aging and neurodegeneration” (Nature Communications, 2016):
“Also recorded” adds a separate entry of the source. Where a name gives a salt, the structure may show the parent alone. Read-outs that look alike come from different tables or passages of the source.

Legend:
[1] = test system: mouse cortical neuron-enriched cultures; assay: RNA-seq transcriptional screen with hierarchical clustering and cluster membership; type: cell-based; conditions: for Chemical cluster assigned by gene expression: 24 h at non-toxic concentration, hierarchical clustering of 5,121 variably expressed genes; for Transcriptional change relative to the cluster 2 signature: RNA-seq, Supplementary Fig. 9
Protocol: (§1) Cultures were treated with the non-cytotoxic dose of each chemical, by exchanging half of the original medium with chemicals at 2 × concentration in prewarmed feeding medium, on DIV 7 for 24 h in 12-well plates at a density of 5 × 10^5 cells per well. RNA was isolated using RNeasy plus mini kit (Cat. #74134, Qiagen). RNA yield and quality were determined using a Nanodrop 1000 Spectrophotometer (Thermo Scientific). Samples were further assessed for quality using either an Agilent Bioanalyzer 2100 or TapeStation 2200 to obtain a RIN. RIN values exceeding 7 were used for sequencing. RNA samples were used to generate and barcode complementary DNA libraries using the TruSeq RNA Library Preparation Kit at the UNC High Throughput Sequencing Facility. Pools of 24 multiplexed samples were sequenced per lane on an Illumina HiSeq 2500 using 50-bp paired-end reads.
(§2) RNA-seq reads were filtered using TagDust and aligned to the reference mouse genome (mm9) with TopHat using default parameters. Reads aligning to ribosomal RNA genes were removed. Transcript abundance was estimated by computing Reads per kilobase per million mapped reads (RPKM) using RefSeq gene models aggregated by gene symbol. For differential expression analyses, raw counts over RefSeq exons were used, and then were compared across samples using DESeq[62].
RPKMs for all RefSeq genes and all samples were filtered such that a given gene had >90% of samples with RPKM >0 and gene length exceeded 500 bp. RPKMs were then log10-transformed, quantile-normalized, median-centred, and the effects due to culture or sequencing batch were removed using a mixed model analysis of variance. This batch correction step was performed on individual experiments rather than chemical–vehicle ratios to reduce the effects due to variations in culture composition as well as batch-to-batch variations at the level of sequencing. Genes were then median-centred again, and filtered such that their s.d. exceeded 0.1. Chemical replicates were then combined using the median. Classes of chemicals were then discovered in two ways. First, we performed hierarchical clustering using average linkage and Pearson correlation distance measures. The boundaries of the discovered classes from clustering were set by computing pairwise Spearman correlations for all samples. A given cluster had to have at least three members with the minimum pairwise Spearman correlation coefficient exceeding 0.2, though cluster members often exceeded a correlation of 0.6 (Supplementary Fig. 5c,d). Seven chemical clusters were discovered, however one was removed due to failing to have a positive silhouette width, a metric of cluster robustness. These definitions enabled the three positive control topoisomerase inhibitors to form a cohesive group of chemicals with known structural and functional similarity (cluster 5). None of the culture or sequencing batches contributed to the formation of any one of the final six clusters (Supplementary Fig. 4).

[2] = test system: mouse cortical neuron cultures
[3] = test system: mitochondrial superoxide in cortical neurons; assay: Mitochondrial superoxide detection (MitoSOX Red live-cell imaging); type: cell-based, mouse; conditions: for Effect of pretreatment on fenamidone-induced O2− production: fenamidone 10 μM, 2 h; for O2− production at the sequencing concentration: seven-point concentration-response, Supplementary Fig. 8; for Mitochondrial superoxide (O2−) production: 2 h treatment, MitoSOX, vincristine 500 µM in Supplementary Fig. 10b
cortical neurons [4] = assay: Soma morphology (proportion of cells with altered soma morphology) in live-cell imaging; type: cell-based, mouse; conditions: for Effect of pretreatment on fenamidone-induced soma swelling / aberrant morphology: fenamidone 10 μM, 2 h; for Soma swelling / aberrant cell morphology: 2 h treatment, vincristine 500 µM in Supplementary Fig. 10c
humans = conditions: cited from earlier work
rats = conditions: lowest dose tested; cited from earlier work
cortical neurons [5] = test system: cortical neurons; parameters: method as in PMID 20881019; conditions: cited from earlier work
purified tubulin = assay: Tubulin polymerization assay (cell-free, BK011P); type: biochemical; conditions: 37 °C, fluorescence over 60 min, equimolar doses
mouse cortical cultures = assay: RNA-seq differential expression (DESeq) against matched vehicle; type: cell-based; conditions: 24 h
Protocol: Figure 4 Cluster 2 chemicals alter expression of a common set of genes. […] RNA-seq was performed in quadruplicate after treating cortical cultures with fenamidone (10 μM) or pyraclostrobin (0.1 μM) for 24 h (n=3 biological replicates) and compared with matched vehicle controls using DESeq to detect differentially expressed genes, listed in Supplementary Data 4.
as §1, with “[…].” for “RNA yield and quality were determined using a Nanodrop 1000 Spectrophotometer (Thermo Scientific).”
as §2

[6] = cited from earlier work
microtubules = conditions: cited from earlier work
cortical neuron cultures = test system: cortical neuron cultures; parameters: method as in PMID 25404338; conditions: cited from earlier work
[7] = pretreatment 18 h, two concentrations

C[C@@]1(c2ccc(Oc3ccccc3)cc2)OC(=O)N(Nc2ccccc2)C1=O (racemic) [famoxadone]
Chemical cluster assigned by gene expression [1]: cluster 2 | % Dead cells (vehicle subtracted) [2]: 1.213%

C[S+]([O-])CCCCN=C=S (racemic) [sulforaphane, DL-sulforophane]
Effect of pretreatment on fenamidone-induced transcriptional changes (RNA-seq) ([1]; pretreatment 10 μM, 18 h, fenamidone 10 μM, 24 h): attenuated | Effect of pretreatment on fenamidone-induced O2− production [3, 7]: attenuated | Effect of pretreatment on fenamidone-induced soma swelling / aberrant morphology (cortical neurons [4]; [7]): attenuated | Autism symptoms (humans): substantially reduces autism symptoms

CO/N=C(/C1=NOCCO1)c1ccccc1Oc1ncnc(Oc2ccccc2Cl)c1F [Fluoxastrobin, fluoxastrobin]
Chemical cluster assigned by gene expression [1]: not assigned to cluster 2 | O2− production at the sequencing concentration [3]: did not generate

CO/C=C(/C(=O)OC)c1ccccc1COc1cccc(C(F)(F)F)n1 [Picoxystrobin]
Acute neurotoxicity (motor activity) (rats): caused acute neurotoxicity (reduced motor activity) at the lowest dose tested

CO/C=C(/C(=O)OC)c1ccccc1Oc1cc(Oc2ccccc2C#N)ncn1 [azoxystrobin]
Chemical cluster assigned by gene expression [1]: not assigned to cluster 2 | O2− production at the sequencing concentration [3]: did not generate

CC1(C)C(C=C(Cl)Cl)C1C(=O)OC(C#N)c1ccc(F)c(Oc2ccccc2)c1 (stereo not shown) [cyfluthrin]
Chemical cluster assigned by gene expression [1]: cluster 1 | Calcium influx in cortical neurons (cortical neurons [5]): stimulate sustained calcium influx

CC1(C)C(C(=O)OC(C#N)c2cccc(Oc3ccccc3)c2)C1(C)C (stereo not shown) [fenpropathrin]
Chemical cluster assigned by gene expression [1]: cluster 1 | Calcium influx in cortical neurons (cortical neurons [5]): stimulate sustained calcium influx

Cc1nn(C)c(Oc2ccccc2)c1C=NOCc1ccc(C(=O)OC(C)(C)C)cc1 [fenpyroximate]
Chemical cluster assigned by gene expression [1]: cluster 2 | EC50 ([3]; Mus musculus, Cortical neurone, read-out: Superoxide production, concentration for half-maximum response (EC50)): 7 nM

CO/N=C(/C(=O)OC)c1ccccc1COc1ccccc1C [kresoxim-methyl]
Transcriptional change relative to the cluster 2 signature [1]: altered transcription in a manner consistent with chemicals in cluster 2

CO/C(=C/C(N)=O)[C@H](C)[C@H](/C=C/c1csc(-c2csc([C@@H](C)/C=C/C=C/C(C)C)n2)n1)OC [myxothiazol, reference compound]
Transcriptional change relative to the cluster 2 signature [1]: altered transcription in a manner consistent with chemicals in cluster 2

CC(=O)O[C@H]1C(=O)[C@@]2(C)[C@H]([C@H](OC(=O)c3ccccc3)[C@]3(O)C[C@H](OC(=O)[C@H](O)[C@@H](NC(=O)c4ccccc4)c4ccccc4)C(C)=C1C3(C)C)[C@]1(OC(C)=O)CO[C@@H]1C[C@@H]2O [paclitaxel, Paclitaxel]
Effect of pretreatment on fenamidone-induced O2− production ([3]; pretreatment 10 μM): attenuated | Effect of pretreatment on fenamidone-induced soma swelling / aberrant morphology (cortical neurons [4]; pretreatment 10 μM): attenuated | Effect on tubulin polymerization (purified tubulin): promoted

COC(=O)N(OC)c1ccccc1COc1ccn(-c2ccc(Cl)cc2)n1 [pyraclostrobin]
Chemical cluster assigned by gene expression [1]: cluster 2 | log2FoldChange, gene Acta2 (mouse cortical cultures; 0.1 μM, vs vehicle, DESeq): 3.944 | log2FoldChange, gene Gpnmb (mouse cortical cultures; 0.1 μM, vs vehicle, DESeq): 3.288 | log2FoldChange, gene Hspg2 (mouse cortical cultures; 0.1 μM, vs vehicle, DESeq): 3.427 | log2FoldChange, gene Tagln (mouse cortical cultures; 0.1 μM, vs vehicle, DESeq): 3.548 | log2FoldChange, gene Thbs1 (mouse cortical cultures; 0.1 μM, vs vehicle, DESeq): 3.263 | Differentially expressed genes (DESeq) compared between the two fungicides (mouse cortical cultures; fenamidone 10 μM or pyraclostrobin 0.1 μM): up- and downregulate a largely overlapping set of genes | Neurotoxicity in a set of assays used by regulatory agencies [6]: No evidence of neurotoxicity

CC(C)(C)c1ccc(CSc2cnn(C(C)(C)C)c(=O)c2Cl)cc1 [pyridaben]
Chemical cluster assigned by gene expression [1]: cluster 2

C=C(C)[C@H]1Cc2c(ccc3c2O[C@@H]2COc4cc(OC)c(OC)cc4[C@@H]2C3=O)O1 [rotenone]
Chemical cluster assigned by gene expression [1]: cluster 2 | Non-cytotoxic concentration identified with live/dead assay [2]: 0.01 µM | Effect on microtubules (microtubules): destabilizes microtubules

CC[C@@]1(O)C(=O)OCc2c1cc1n(c2=O)Cc2cc3c(CN(C)C)c(O)ccc3nc2-1 [topotecan, Topotecan hydrochloride, reference compound]
Chemical cluster assigned by gene expression [1]: Cluster 5 | Spontaneous synaptic activity (cortical neuron cultures): reducing spontaneous synaptic activity

CON=C(C(=O)OC)c1ccccc1CON=C(C)c1cccc(C(F)(F)F)c1 [trifloxystrobin]
Chemical cluster assigned by gene expression [1]: cluster 2 | % Dead cells (vehicle subtracted) ([2]; mouse, 24 h, 10 µM): 7.404%

CC[C@]1(O)C[C@H]2CN(CCc3c([nH]c4ccccc34)[C@@](C(=O)OC)(c3cc4c(cc3OC)N(C=O)[C@H]3[C@@](O)(C(=O)OC)[C@H](OC(C)=O)[C@]5(CC)C=CCN6CC[C@]43[C@@H]65)C2)C1 [vincristine, vincristine sulfate salt]
Mitochondrial superoxide (O2−) production [3]: phenocopied | Mitochondrial superoxide (O2−) production ([3]; listed as Vincristine): induced; also recorded: dose-dependent | Soma swelling / aberrant cell morphology (cortical neurons [4]): phenocopied | Soma swelling / aberrant cell morphology (cortical neurons [4]; listed as Vincristine): altered cell morphology; also recorded: dose-dependent | Effect on tubulin polymerization (purified tubulin): inhibited
